In the supplement of paper PMC10307832:

How the values were obtained:
Assay in all cases: relative viability (nuclei count vs DMSO), 5 days (fraction); higher = more cells survive
[1] = compound: CC1=CC=C(C=C1)C(=O)CN2C3=C(CCCC3)SC2=N [Pifithrin_alpha] + CS(=O)(=O)CCNCc1ccc(-c2ccc3ncnc(Nc4ccc(OCc5cccc(F)c5)c(Cl)c4)c3c2)o1 [Lapatinib] (partner 2 µM)
Summary of the method: (§1)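 A single step with final 0.05% Triton X-100, 1% formaldehyde and 1 ug/ml Hoechst fixed the cells and stained nuclei 5 days after treatment. Lung cancer cell lines in 1536-well plates had been treated by pin tool the day after seeding with one drug alone or a fixed anchor-drug dose plus five library-drug doses (not always all listed) in √10 steps, and nuclei were counted on 4× images. Relative viability is the ratio of nuclei in treated wells to nuclei in vehicle wells, taken as the median of duplicate plates.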

[2] = compound: CC1=CC=C(C=C1)C(=O)CN2C3=C(CCCC3)SC2=N [Pifithrin_alpha] + C[C@@H](Oc1cc(-c2cnn(C3CCNCC3)c2)cnc1N)c1c(Cl)ccc(F)c1Cl [Crizotinib] (partner 1 µM)
Summary of the method: as §1

Bemcentinib + Dasatinib = compound: Nc1nc(Nc2ccc3c(c2)CC[C@@H](N2CCCC2)CC3)nn1-c1cc2c(nn1)-c1ccccc1CCC2 [Bemcentinib] + Cc1nc(Nc2ncc(C(=O)Nc3c(C)cccc3Cl)s2)cc(N2CCN(CCO)CC2)n1 [Dasatinib] (partner 0.075 µM)
Summary of the method: as §1

Bemcentinib + Phenformin = compound: Nc1nc(Nc2ccc3c(c2)CC[C@@H](N2CCCC2)CC3)nn1-c1cc2c(nn1)-c1ccccc1CCC2 [Bemcentinib] + N=C(N)NC(=N)NCCc1ccccc1 [Phenformin] (partner 250 µM)
Summary of the method: as §1

NCI-H650
relative viability ([1]; first compound 3.162 µM): 1.11
relative viability ([1]; first compound 10 µM): 1.11
relative viability ([1]; first compound 31.62 µM): 0.532
relative viability ([1]; first compound 100 µM): 0.767
relative viability ([2]; first compound 3.162 µM): 0.671
relative viability ([2]; first compound 10 µM): 0.659
relative viability ([2]; first compound 31.62 µM): 0.434
relative viability ([2]; first compound 100 µM): 0.743
relative viability (Bemcentinib + Dasatinib; first compound 0.04 µM): 0.424
relative viability (Bemcentinib + Dasatinib; first compound 0.1265 µM): 0.514
relative viability (Bemcentinib + Dasatinib; first compound 0.4 µM): 0.474
relative viability (Bemcentinib + Dasatinib; first compound 1.265 µM): 0.43
relative viability (Bemcentinib + Dasatinib; first compound 4 µM): 0.4
relative viability (Bemcentinib + Phenformin; first compound 0.04 µM): 0.407
relative viability (Bemcentinib + Phenformin; first compound 0.1265 µM): 0.487
relative viability (Bemcentinib + Phenformin; first compound 0.4 µM): 0.484
relative viability (Bemcentinib + Phenformin; first compound 1.265 µM): 0.429
relative viability (Bemcentinib + Phenformin; first compound 4 µM): 0.415
